Laboratory results from US10927123B2, “Modulators of the beta-3 adrenergic receptor useful for the treatment or prevention of disorders related thereto” (Arena Pharmaceuticals, Inc., priority 2016, dated 2021).

What follows are compounds tested against Beta-3 Adrenergic Receptor (Homo sapiens (Human), UniProt P13945) (assay: HTRF cAMP antagonist assay (IC50 determination)). Conditions: CHO-K1 cells stably expressing recombinant receptor; antagonism of isoproterenol at EC90; cAMP readout.
Type: cell-based
Outline: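 Antagonist mode: isoproterenol at its predetermined EC90 added after compound to recombinant CHO-K1 cells in IBMX-containing PBS, 1 h, room temperature. Compounds tested as 5-fold, 10-point dilutions, top final typically 10 or 100 μM. HTRF signal converted to cAMP via standard curve, giving IC50.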

Sequence of Beta-3 Adrenergic Receptor (P13945 whole entry, species assumed): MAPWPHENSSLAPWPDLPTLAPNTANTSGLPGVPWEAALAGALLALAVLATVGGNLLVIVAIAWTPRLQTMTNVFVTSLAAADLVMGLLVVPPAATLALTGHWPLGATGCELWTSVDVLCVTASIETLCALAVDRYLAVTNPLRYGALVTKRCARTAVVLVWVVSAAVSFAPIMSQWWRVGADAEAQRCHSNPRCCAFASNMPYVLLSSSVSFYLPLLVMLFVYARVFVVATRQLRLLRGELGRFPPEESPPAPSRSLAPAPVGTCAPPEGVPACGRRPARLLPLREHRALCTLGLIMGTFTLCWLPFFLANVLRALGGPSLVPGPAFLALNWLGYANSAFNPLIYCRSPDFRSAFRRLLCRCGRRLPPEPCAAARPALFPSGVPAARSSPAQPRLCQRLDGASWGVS

Compound	IC50 [nM]
O=S(=O)(c1cccc(-c2ccc(CN3CCOCC3)cc2)c1)N1CCC2(CC1)C[C@@H](NC[C@H](O)COc1cccc(S(=O)(=O)C3(CO)CC3)c1)CO2 [Compound 266, (S)-1-(3-(1-(hydroxymethyl)cyclopropylsulfonyl)phenoxy)-3-((R)-8-(4′-(morpholinomethyl)biphenyl-3-ylsulfonyl)-1-oxa-8-azaspiro[4.5]decan-3-ylamino)propan-2-ol]	1290
COCCNCc1ccc(-c2cccc(S(=O)(=O)N3CCC4(CC3)C[C@@H](NC[C@H](O)COc3cccc(S(=O)(=O)C5(CO)CC5)c3)CO4)c2)cc1 [Compound 267, (S)-1-(3-(1-(hydroxymethyl)cyclopropylsulfonyl)phenoxy)-3-((R)-8-(4′-((2-methoxyethylamino)methyl)biphenyl-3-ylsulfonyl)-1-oxa-8-azaspiro[4.5]decan-3-ylamino)propan-2-ol]	442
CCNCc1ccc(-c2cccc(S(=O)(=O)N3CCC4(CC3)C[C@@H](NC[C@H](O)COc3cccc(S(=O)(=O)C5(CO)CC5)c3)CO4)c2)cc1 [Compound 268, (S)-1-((R)-8-(4′-((ethylamino)methyl)biphenyl-3-ylsulfonyl)-1-oxa-8-azaspiro[4.5]decan-3-ylamino)-3-(3-(1-(hydroxymethyl)cyclopropylsulfonyl)phenoxy)propan-2-ol]	138
O=S(=O)(c1cccc(-c2ccc(CNC3CCC3)cc2)c1)N1CCC2(CC1)C[C@@H](NC[C@H](O)COc1cccc(S(=O)(=O)C3(CO)CC3)c1)CO2 [Compound 269, (S)-1-((R)-8-(4′-((cyclobutylamino)methyl)biphenyl-3-ylsulfonyl)-1-oxa-8-azaspiro[4.5]decan-3-ylamino)-3-(3-(1-(hydroxymethyl)cyclopropylsulfonyl)phenoxy)propan-2-ol]	400
NCCNCc1ccc(-c2cccc(S(=O)(=O)N3CCC4(CC3)C[C@@H](NC[C@H](O)COc3cccc(S(=O)(=O)C5(CO)CC5)c3)CO4)c2)cc1 [Compound 270, (S)-1-((R)-8-(4′-((2-aminoethylamino)methyl)biphenyl-3-ylsulfonyl)-1-oxa-8-azaspiro[4.5]decan-3-ylamino)-3-(3-(1-(hydroxymethyl)cyclopropylsulfonyl)phenoxy)propan-2-ol]	92.3
NCCCNCc1ccc(-c2cccc(S(=O)(=O)N3CCC4(CC3)C[C@@H](NC[C@H](O)COc3cccc(S(=O)(=O)C5(CO)CC5)c3)CO4)c2)cc1 [Compound 271, (S)-1-((R)-8-(4′-((3-aminopropylamino)methyl)biphenyl-3-ylsulfonyl)-1-oxa-8-azaspiro[4.5]decan-3-ylamino)-3-(3-(1-(hydroxymethyl)cyclopropylsulfonyl)phenoxy)propan-2-ol]	206
CC(C)CNCc1ccc(-c2cccc(S(=O)(=O)N3CCC4(CC3)C[C@@H](NC[C@H](O)COc3cccc(S(=O)(=O)C5(CO)CC5)c3)CO4)c2)cc1 [Compound 272, (S)-1-(3-(1-(hydroxymethyl)cyclopropylsulfonyl)phenoxy)-3-((R)-8-(4′-((isobutylamino)methyl)biphenyl-3-ylsulfonyl)-1-oxa-8-azaspiro[4.5]decan-3-ylamino)propan-2-ol]	566
C[C@H]1CN(C)c2cc(S(=O)(=O)N3CCC4(CC3)C[C@@H](NC[C@H](O)COc3cccc(S(=O)(=O)C5CC5)c3)CO4)cnc2O1 [Compound 274, (S)-1-(3-(cyclopropylsulfonyl)phenoxy)-3-((R)-8-((S)-1,3-dimethyl-2,3-dihydro-1H-pyrido[2,3-b][1,4]oxazin-7-ylsulfonyl)-1-oxa-8-azaspiro[4.5]decan-3-ylamino)propan-2-ol]	38.4
Cc1c(S(=O)(=O)N2CCC3(CC2)C[C@@H](NC[C@H](O)COc2cccc(S(=O)(=O)C4CC4)c2)CO3)cnc2c1N(C)CCO2 [Compound 275, (S)-1-(3-(cyclopropylsulfonyl)phenoxy)-3-((R)-8-(1,8-dimethyl-2,3-dihydro-1H-pyrido[2,3-b][1,4]oxazin-7-ylsulfonyl)-1-oxa-8-azaspiro[4.5]decan-3-ylamino)propan-2-ol]	62.3
Cc1c(S(=O)(=O)N2CCC3(CC2)C[C@@H](NC[C@H](O)COc2cccc(S(=O)(=O)CC(N)=O)c2)CO3)cnc2c1N(C)CCO2 [Compound 276, 2-(3-((S)-3-((R)-8-(1,8-dimethyl-2,3-dihydro-1H-pyrido[2,3-b][1,4]oxazin-7-ylsulfonyl)-1-oxa-8-azaspiro[4.5]decan-3-ylamino)-2-hydroxypropoxy)phenylsulfonyl)acetamide]	1810
C[C@H]1CN(C)c2cc(S(=O)(=O)N3CCC4(CC3)C[C@H](NC[C@H](O)COc3cccc(S(=O)(=O)C5CC5)c3)CO4)cnc2O1 [Compound 277, (S)-1-(3-(cyclopropylsulfonyl)phenoxy)-3-((S)-8-((S)-1,3-dimethyl-2,3-dihydro-1H-pyrido[2,3-b][1,4]oxazin-7-ylsulfonyl)-1-oxa-8-azaspiro[4.5]decan-3-ylamino)propan-2-ol]	16.5
C[C@H]1CN(C)c2cc(S(=O)(=O)N3CCC4(CC3)C[C@@H](NC[C@H](O)COc3cccc(S(=O)(=O)CC(N)=O)c3)CO4)cnc2O1 [Compound 278, 2-(3-((S)-3-((R)-8-((S)-1,3-dimethyl-2,3-dihydro-1H-pyrido[2,3-b][1,4]oxazin-7-ylsulfonyl)-1-oxa-8-azaspiro[4.5]decan-3-ylamino)-2-hydroxypropoxy)phenylsulfonyl)acetamide]	586
Cn1cnc2cc(S(=O)(=O)N3CCC4(CC3)C[C@@H](NC[C@H](O)COc3cccc(S(=O)(=O)C5CC5)c3)CO4)cnc21 [Compound 279, (S)-1-(3-(cyclopropylsulfonyl)phenoxy)-3-((R)-8-(3-methyl-3H-imidazo[4,5-b]pyridin-6-ylsulfonyl)-1-oxa-8-azaspiro[4.5]decan-3-ylamino)propan-2-ol]	39.7
O=C1NCc2ncc(S(=O)(=O)N3CCC4(CC3)C[C@@H](NC[C@H](O)COc3cccc(S(=O)(=O)C5CC5)c3)CO4)cc21 [Compound 280, 3-((R)-3-((S)-3-(3-(cyclopropylsulfonyl)phenoxy)-2-hydroxypropylamino)-1-oxa-8-azaspiro[4.5]decan-8-ylsulfonyl)-6,7-dihydro-5H-pyrrolo[3,4-b]pyridin-5-one]	96.4
O=c1[nH]c2cc(S(=O)(=O)N3CCC4(CC3)C[C@@H](NC[C@H](O)COc3cccc(S(=O)(=O)C5CC5)c3)CO4)cnc2[nH]1 [Compound 281, 6-((R)-3-((S)-3-(3-(cyclopropylsulfonyl)phenoxy)-2-hydroxypropylamino)-1-oxa-8-azaspiro[4.5]decan-8-ylsulfonyl)-1H-imidazo[4,5-b]pyridin-2(3H)-one]	57.9
O=S(=O)(c1cccc(OC[C@@H](O)CN[C@H]2COC3(CCN(S(=O)(=O)c4cnc5c(c4)CCCC5)CC3)C2)c1)C1CC1 [Compound 282, (S)-1-(3-(cyclopropylsulfonyl)phenoxy)-3-((R)-8-(5,6,7,8-tetrahydroquinolin-3-ylsulfonyl)-1-oxa-8-azaspiro[4.5]decan-3-ylamino)propan-2-ol]	23.7
C[C@@H]1CN(C)c2cc(S(=O)(=O)N3CCC4(CC3)C[C@@H](NC[C@H](O)COc3cccc(S(=O)(=O)C5(CO)CC5)c3)CO4)cnc2O1 [Compound 283, (S)-1-((R)-8-((R)-1,3-dimethyl-2,3-dihydro-1H-pyrido[2,3-b][1,4]oxazin-7-ylsulfonyl)-1-oxa-8-azaspiro[4.5]decan-3-ylamino)-3-(3-(1-(hydroxymethyl)cyclopropylsulfonyl)phenoxy)propan-2-ol]	68.9
O=S(=O)(c1cnc2c(c1)CCCO2)N1CCC2(CC1)C[C@@H](NC[C@H](O)COc1cccc(S(=O)(=O)C3(CO)CC3)c1)CO2 [Compound 284, (S)-1-((R)-8-(3,4-dihydro-2H-pyrano[2,3-b]pyridin-6-ylsulfonyl)-1-oxa-8-azaspiro[4.5]decan-3-ylamino)-3-(3-(1-(hydroxymethyl)cyclopropylsulfonyl)phenoxy)propan-2-ol]	106
O=S(=O)(c1cnc2c(c1)OCCO2)N1CCC2(CC1)C[C@@H](NC[C@H](O)COc1cccc(S(=O)(=O)C3(CO)CC3)c1)CO2 [Compound 285, (S)-1-((R)-8-(2,3-dihydro-[1,4]dioxino[2,3-b]pyridin-7-ylsulfonyl)-1-oxa-8-azaspiro[4.5]decan-3-ylamino)-3-(3-(1-(hydroxymethyl)cyclopropylsulfonyl)phenoxy)propan-2-ol]	303
CN1CCOc2cc(S(=O)(=O)N3CCC4(CC3)C[C@@H](NC[C@H](O)COc3cccc(S(=O)(=O)C5(CO)CC5)c3)CO4)cnc21 [Compound 286, (S)-1-(3-(1-(hydroxymethyl)cyclopropylsulfonyl)phenoxy)-3-((R)-8-(4-methyl-3,4-dihydro-2H-pyrido[3,2-b][1,4]oxazin-7-ylsulfonyl)-1-oxa-8-azaspiro[4.5]decan-3-ylamino)propan-2-ol]	56.9
Cn1cnc2ccc(S(=O)(=O)N3CCC4(CC3)C[C@@H](NC[C@H](O)COc3cccc(S(=O)(=O)C5(CO)CC5)c3)CO4)nc21 [Compound 287, (S)-1-(3-(1-(hydroxymethyl)cyclopropylsulfonyl)phenoxy)-3-((R)-8-(3-methyl-3H-imidazo[4,5-b]pyridin-5-ylsulfonyl)-1-oxa-8-azaspiro[4.5]decan-3-ylamino)propan-2-ol]	151
CN1CC(C)(C)Oc2nc(S(=O)(=O)N3CCC4(CC3)C[C@@H](NC[C@H](O)COc3cccc(S(=O)(=O)C5(CO)CC5)c3)CO4)ccc21 [Compound 288, (S)-1-(3-(1-(hydroxymethyl)cyclopropylsulfonyl)phenoxy)-3-((R)-8-(1,3,3-trimethyl-2,3-dihydro-1H-pyrido[2,3-b][1,4]oxazin-6-ylsulfonyl)-1-oxa-8-azaspiro[4.5]decan-3-ylamino)propan-2-ol]	177
O=S(=O)(c1cccc(OC[C@@H](O)CN[C@H]2COC3(CCN(S(=O)(=O)c4cnc5c(c4)OCCO5)CC3)C2)c1)C1CC1 [Compound 289, (S)-1-(3-(cyclopropylsulfonyl)phenoxy)-3-((R)-8-(2,3-dihydro-[1,4]dioxino[2,3-b]pyridin-7-ylsulfonyl)-1-oxa-8-azaspiro[4.5]decan-3-ylamino)propan-2-ol]	65.8
